According to ChEMBL document CHEMBL1201862, “PubChem BioAssay data set” (2004):
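Test compounds were applied to cells in 96-well plates for 48 hours at 5 doses. Abbreviation: GI50, concentration required for 50% inhibition of growth.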 Calls of active or inactive are those of the source. No stated cut-off is given here; in the data, active = GI50 up to about 1.1 µM and inactive = higher.

What was measured:
Assay in all cases: NCI anticancer screen, dose series, 48 h
SF-268 = test system: SF-268
HCC 2998 = test system: HCC 2998
COLO 205 = test system: COLO 205
OVCAR-8 = test system: OVCAR-8
ACHN = test system: ACHN
RPMI-8226 = test system: RPMI-8226
IGROV-1 = test system: IGROV-1
NCI-H460 = test system: NCI-H460
CCRF-CEM = test system: CCRF-CEM
UACC-62 = test system: UACC-62
KM12 = test system: KM12
MDA-MB-435 = test system: MDA-MB-435
SNB-75 = test system: SNB-75
OVCAR-5 = test system: OVCAR-5
LOX IMVI = test system: LOX IMVI
NCI-H226 = test system: NCI-H226
UO-31 = test system: UO-31
Malme-3M = test system: Malme-3M

SMILES | GI50 (SF-268) | GI50 (HCC 2998) | GI50 (COLO 205) | GI50 (OVCAR-8) | GI50 (ACHN) | GI50 (RPMI-8226) | GI50 (IGROV-1) | GI50 (NCI-H460) | GI50 (CCRF-CEM) | GI50 (UACC-62) | GI50 (KM12) | GI50 (MDA-MB-435) | GI50 (SNB-75) | GI50 (OVCAR-5) | GI50 (LOX IMVI) | GI50 (NCI-H226) | GI50 (UO-31) | GI50 (Malme-3M)
Cc1c(C)c2c(c(N)c1C#N)C(=O)N(Cc1ccc(S(N)(=O)=O)cc1)C2=O | 16.5 µM (inactive) | > 100 µM (inactive) | > 100 µM (inactive) | 4.65 µM (inactive) | > 42.6 µM (inactive) | > 100 µM (inactive) | > 38.4 µM (inactive) | > 100 µM (inactive) | > 100 µM (inactive) | > 100 µM (inactive) | > 100 µM (inactive) | > 100 µM (inactive) | > 35.9 µM (inactive) | 24.3 µM (inactive) | 64.6 µM (inactive) | > 30.5 µM (inactive) | 97.9 µM (inactive) | 20.5 µM (inactive)
COc1cc(/C=N\O)nc(-c2ccccn2)c1 | 0.452 µM (active) | 46.8 µM (inactive) | 0.188 µM (active) | 0.2 µM (active) | 0.0923 µM (active) | 0.337 µM (active) | 0.202 µM (active) | 0.227 µM (active) | 0.175 µM (active) | 0.448 µM (active) | 0.55 µM (active) | 1.6 µM (inactive) | 1.28 µM (inactive) | 3.08 µM (inactive) | 0.221 µM (active) | 0.363 µM (active) | 0.161 µM (active) | 0.741 µM (active)
CCOC(=O)C1C[C@H]2CO[C@H](c3ccccc3)N2C1=O (stereo partly specified) | > 100 µM (inactive) | 73.8 µM (inactive) | > 100 µM (inactive) | > 100 µM (inactive) | > 100 µM (inactive) | > 100 µM (inactive) | > 100 µM (inactive) | > 100 µM (inactive) | > 100 µM (inactive) | > 100 µM (inactive) | > 100 µM (inactive) | > 100 µM (inactive) | > 100 µM (inactive) | > 100 µM (inactive) | > 100 µM (inactive) | > 100 µM (inactive) | > 100 µM (inactive) | > 100 µM (inactive)
CC(C)OP(=O)(OC(C)C)/C(C#N)=C/c1ccco1 | > 100 µM (inactive) | > 100 µM (inactive) | > 100 µM (inactive) | > 100 µM (inactive) | > 100 µM (inactive) | > 100 µM (inactive) | > 100 µM (inactive) | > 100 µM (inactive) | > 100 µM (inactive) | > 100 µM (inactive) | > 100 µM (inactive) | > 100 µM (inactive) | > 100 µM (inactive) | > 100 µM (inactive) | > 100 µM (inactive) | > 100 µM (inactive) | 5.19 µM (inactive) | > 100 µM (inactive)
Nn1c(Cc2ccc(Cl)cc2)n[nH]c1=O | > 100 µM (inactive) | > 100 µM (inactive) | > 100 µM (inactive) | > 100 µM (inactive) | > 100 µM (inactive) | > 100 µM (inactive) | > 100 µM (inactive) | > 100 µM (inactive) | > 100 µM (inactive) | > 100 µM (inactive) | > 100 µM (inactive) | > 100 µM (inactive) | > 100 µM (inactive) | > 100 µM (inactive) | > 100 µM (inactive) | > 100 µM (inactive) | 34.3 µM (inactive) | > 100 µM (inactive)
CCOC(=O)/C=C\C(C#N)(C#N)/N=C/c1ccsc1 | 6.75 µM (inactive) | 16 µM (inactive) | 1.9 µM (inactive) | 3.86 µM (inactive) | 2.91 µM (inactive) | 1.33 µM (inactive) | 14.5 µM (inactive) | 20.5 µM (inactive) | 0.207 µM (active) | 17 µM (inactive) | 19.5 µM (inactive) | 2.39 µM (inactive) | 13 µM (inactive) | 18.2 µM (inactive) | 4.06 µM (inactive) | 14.8 µM (inactive) | 2.7 µM (inactive) | 2.29 µM (inactive)
O=C(O)CN(CC(=O)O)Cc1ccn(-c2cccc(-n3ccc(CN(CC(=O)O)CC(=O)O)n3)n2)n1 | > 100 µM (inactive) | > 100 µM (inactive) | > 100 µM (inactive) | > 100 µM (inactive) | > 100 µM (inactive) | > 100 µM (inactive) | > 100 µM (inactive) | > 100 µM (inactive) | – | > 100 µM (inactive) | > 100 µM (inactive) | 3.53 µM (inactive) | > 100 µM (inactive) | > 100 µM (inactive) | – | > 100 µM (inactive) | 93.8 µM (inactive) | > 100 µM (inactive)
COC(=O)c1c(O)ccc2c1c1c(n2Cc2cc(OC)cc(OC)c2)C(=O)c2ccccc2C1=O | 8.32 µM (inactive) | 2.72 µM (inactive) | 1.86 µM (inactive) | 3.72 µM (inactive) | 5.04 µM (inactive) | 2.99 µM (inactive) | 5.06 µM (inactive) | 3.75 µM (inactive) | 3.7 µM (inactive) | – | 3.23 µM (inactive) | 2.67 µM (inactive) | 14.1 µM (inactive) | 21 µM (inactive) | 8.67 µM (inactive) | 14.7 µM (inactive) | 4.56 µM (inactive) | 6.34 µM (inactive)
